Measurements as given in patent publication US20240109969A1, “Dosing Regimen for Therapies Comprising Bispecific Anti-EGFR/C-Met Antibodies” (Janssen Biotech, Inc., priority 2022, published 2024).
Entries after “also recorded” stand apart in the source; their conditions may differ.

Experiments:
[1] = biological target: T1, Organic Cation Transporter 1 (OCT1) (Homo sapiens, UniProt O15245); conditions: cited from earlier work
T1 sequence (O15245 1-554): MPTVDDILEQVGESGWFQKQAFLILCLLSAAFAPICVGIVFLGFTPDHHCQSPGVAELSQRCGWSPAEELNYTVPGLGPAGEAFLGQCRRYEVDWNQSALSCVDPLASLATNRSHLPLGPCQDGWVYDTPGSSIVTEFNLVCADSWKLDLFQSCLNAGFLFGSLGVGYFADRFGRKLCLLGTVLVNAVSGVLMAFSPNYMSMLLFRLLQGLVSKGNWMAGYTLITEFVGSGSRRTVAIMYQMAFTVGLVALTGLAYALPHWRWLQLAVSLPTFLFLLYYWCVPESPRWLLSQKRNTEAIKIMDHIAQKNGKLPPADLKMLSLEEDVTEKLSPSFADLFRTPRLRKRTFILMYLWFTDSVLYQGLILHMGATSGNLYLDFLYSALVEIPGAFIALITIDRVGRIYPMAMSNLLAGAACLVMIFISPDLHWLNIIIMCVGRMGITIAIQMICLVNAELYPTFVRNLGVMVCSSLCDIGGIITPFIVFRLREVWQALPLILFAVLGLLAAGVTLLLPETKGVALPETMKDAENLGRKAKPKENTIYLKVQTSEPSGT

[2] = biological target: P-glycoprotein (P-gp) (Homo sapiens, UniProt P08183); conditions: cited from earlier work
[3] = biological target: T2, breast cancer resistance protein (BCRP) (Homo sapiens, UniProt Q9UNQ0); conditions: cited from earlier work
T2 sequence (Q9UNQ0 1-655): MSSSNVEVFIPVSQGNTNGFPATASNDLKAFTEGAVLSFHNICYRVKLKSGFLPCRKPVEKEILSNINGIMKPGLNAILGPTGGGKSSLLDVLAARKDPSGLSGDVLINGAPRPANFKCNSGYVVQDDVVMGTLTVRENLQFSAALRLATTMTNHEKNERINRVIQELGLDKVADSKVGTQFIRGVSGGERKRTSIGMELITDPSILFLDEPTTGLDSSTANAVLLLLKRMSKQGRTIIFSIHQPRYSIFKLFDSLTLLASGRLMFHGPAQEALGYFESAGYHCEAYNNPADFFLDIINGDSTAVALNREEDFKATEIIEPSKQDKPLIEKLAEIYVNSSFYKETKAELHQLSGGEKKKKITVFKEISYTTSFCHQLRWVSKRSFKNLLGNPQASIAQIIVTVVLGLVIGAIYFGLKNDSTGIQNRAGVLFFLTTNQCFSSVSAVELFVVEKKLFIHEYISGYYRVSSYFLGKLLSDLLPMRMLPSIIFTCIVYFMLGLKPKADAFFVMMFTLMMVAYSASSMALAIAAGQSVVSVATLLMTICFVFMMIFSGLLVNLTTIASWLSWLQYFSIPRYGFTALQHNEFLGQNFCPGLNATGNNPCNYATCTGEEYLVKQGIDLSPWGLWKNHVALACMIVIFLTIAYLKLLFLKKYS

[4] = biological target: T3, multidrug resistance protein 4 (MRP4) (Homo sapiens, UniProt O15439); conditions: cited from earlier work
T3 sequence (O15439 1-1325): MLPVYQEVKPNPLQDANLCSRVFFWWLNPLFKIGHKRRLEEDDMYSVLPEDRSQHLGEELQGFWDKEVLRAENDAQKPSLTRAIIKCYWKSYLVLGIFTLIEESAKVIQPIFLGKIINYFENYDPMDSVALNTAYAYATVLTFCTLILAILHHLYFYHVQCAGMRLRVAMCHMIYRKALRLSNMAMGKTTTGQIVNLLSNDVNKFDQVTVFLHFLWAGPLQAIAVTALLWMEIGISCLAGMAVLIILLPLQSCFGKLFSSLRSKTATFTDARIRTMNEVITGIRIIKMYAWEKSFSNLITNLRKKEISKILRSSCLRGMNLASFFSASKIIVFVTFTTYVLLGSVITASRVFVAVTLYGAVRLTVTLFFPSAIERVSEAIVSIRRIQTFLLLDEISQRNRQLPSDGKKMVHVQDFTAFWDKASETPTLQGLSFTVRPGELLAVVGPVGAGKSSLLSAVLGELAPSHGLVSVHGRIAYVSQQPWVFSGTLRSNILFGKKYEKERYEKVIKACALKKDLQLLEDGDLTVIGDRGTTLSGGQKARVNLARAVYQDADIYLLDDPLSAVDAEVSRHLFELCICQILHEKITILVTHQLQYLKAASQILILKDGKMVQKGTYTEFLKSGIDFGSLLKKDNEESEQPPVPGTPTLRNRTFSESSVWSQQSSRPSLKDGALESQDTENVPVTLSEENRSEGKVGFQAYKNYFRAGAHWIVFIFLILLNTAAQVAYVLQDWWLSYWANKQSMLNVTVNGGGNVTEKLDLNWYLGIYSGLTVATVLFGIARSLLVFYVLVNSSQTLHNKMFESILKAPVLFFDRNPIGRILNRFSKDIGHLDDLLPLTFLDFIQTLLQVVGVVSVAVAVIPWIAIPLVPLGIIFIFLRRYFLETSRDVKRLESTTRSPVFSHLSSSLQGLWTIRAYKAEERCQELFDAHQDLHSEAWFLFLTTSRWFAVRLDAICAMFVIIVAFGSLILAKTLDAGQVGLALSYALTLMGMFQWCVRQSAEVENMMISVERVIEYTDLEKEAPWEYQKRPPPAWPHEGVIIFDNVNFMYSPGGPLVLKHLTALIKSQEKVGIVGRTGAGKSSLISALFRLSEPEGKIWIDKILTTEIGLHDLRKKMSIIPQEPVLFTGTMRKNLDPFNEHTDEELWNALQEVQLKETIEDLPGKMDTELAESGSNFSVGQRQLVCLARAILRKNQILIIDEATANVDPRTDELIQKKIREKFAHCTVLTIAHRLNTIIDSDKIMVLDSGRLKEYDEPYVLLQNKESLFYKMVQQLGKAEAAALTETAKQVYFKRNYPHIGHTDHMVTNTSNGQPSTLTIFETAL

Chain of P-glycoprotein (P-gp) (P08183 whole entry): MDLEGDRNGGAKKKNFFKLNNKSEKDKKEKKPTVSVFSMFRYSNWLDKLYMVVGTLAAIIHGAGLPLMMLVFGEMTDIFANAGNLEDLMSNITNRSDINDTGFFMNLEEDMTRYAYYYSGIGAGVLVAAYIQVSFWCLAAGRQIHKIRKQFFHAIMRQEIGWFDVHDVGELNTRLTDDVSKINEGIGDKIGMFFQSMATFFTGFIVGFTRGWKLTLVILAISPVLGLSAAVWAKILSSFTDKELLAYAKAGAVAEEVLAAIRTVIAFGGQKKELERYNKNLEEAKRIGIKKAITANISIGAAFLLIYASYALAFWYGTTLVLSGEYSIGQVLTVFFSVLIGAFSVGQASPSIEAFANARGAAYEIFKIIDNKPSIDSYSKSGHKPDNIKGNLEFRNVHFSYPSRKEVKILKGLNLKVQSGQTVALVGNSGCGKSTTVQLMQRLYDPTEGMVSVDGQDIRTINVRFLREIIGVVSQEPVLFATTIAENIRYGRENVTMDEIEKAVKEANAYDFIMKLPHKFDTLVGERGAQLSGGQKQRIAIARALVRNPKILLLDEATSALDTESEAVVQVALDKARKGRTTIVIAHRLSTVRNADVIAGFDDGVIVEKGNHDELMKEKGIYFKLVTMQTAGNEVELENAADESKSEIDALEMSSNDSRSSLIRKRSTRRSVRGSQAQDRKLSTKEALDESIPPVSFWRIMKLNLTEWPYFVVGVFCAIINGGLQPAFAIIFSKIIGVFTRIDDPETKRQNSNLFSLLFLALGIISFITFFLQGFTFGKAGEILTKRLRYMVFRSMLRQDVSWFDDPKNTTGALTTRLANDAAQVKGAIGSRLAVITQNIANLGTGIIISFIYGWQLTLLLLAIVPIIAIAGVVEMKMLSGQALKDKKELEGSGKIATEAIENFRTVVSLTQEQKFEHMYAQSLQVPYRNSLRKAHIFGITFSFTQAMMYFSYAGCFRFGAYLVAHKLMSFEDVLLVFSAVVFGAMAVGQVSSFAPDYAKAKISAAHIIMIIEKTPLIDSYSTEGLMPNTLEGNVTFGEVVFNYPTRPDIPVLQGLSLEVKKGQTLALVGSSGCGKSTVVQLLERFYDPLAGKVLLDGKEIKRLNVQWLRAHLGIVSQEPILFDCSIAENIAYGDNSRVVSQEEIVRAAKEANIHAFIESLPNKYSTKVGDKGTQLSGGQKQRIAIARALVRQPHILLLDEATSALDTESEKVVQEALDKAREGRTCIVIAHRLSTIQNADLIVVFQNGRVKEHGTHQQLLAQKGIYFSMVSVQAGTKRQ

Compound: amivantamab
- impact of chemotherapy on amivantamab exposure (preliminary cycle 1 PK data (n=9), FIG. 3A-C): no impact; also recorded: not impacted
- amivantamab trough concentration / exposure, Q3W (21-day cycle) versus monotherapy Q2W (28-day cycle, 1050/1400 mg) (preliminary, FIG. 4A-B): Similar

Compound: C=CC(=O)Nc1cc(Nc2nccc(-n3cc(CN(C)C)c(-c4ccccc4)n3)n2)c(OC)cc1N1CCOCC1 [Lazertinib, N-(5-(4-(4-((dimethylamino)methyl)-3-phenyl-1H-pyrazol-1-yl)pyrimidin-2-ylamino)-4-methoxy-2-morpholinophenyl)acrylamide]
- inhibition of OCT1 [1]: inhibitor
- inhibition of P-gp [2]: inhibitor
- inhibition of BCRP [3]: inhibitor
- inhibition of MRP4 [4]: inhibitor
